We go through 5 compounds from US11912682B2, “Isoindolinone compounds” (Monte Rosa Therapeutics, Inc., priority 2021, dated 2024).

Structures are written as SMILES.

Holding throughout (type): cell-based
One assay addresses CK1alpha (Homo sapiens (Human), UniProt P48729). Kind of assay: selectivity by Western blot in MM1S cells, CK1alpha. Details: key to CK1alpha degradation: A represents a no degradation observed at 30 μM; B represents trace degradation at 30 μM (below 20%); C represents weak degradation at 30 μM (below 50%); D represents degradation at 30 μM (>90%); E represents degradation at 3 μM (>90%); F represents degradation at 0.3 μM (>90%). To be noted: for CK1alpha degradation: MM1S cells, 6 hours, 0.3, 3 and 30 μM. The method, then: (§1) MM1S cells were purchased from ATCC (cat. Number CRL-2974), sub-cultured in 90% RPMI 1640 with 10% FBS, supplemented with 1× P/S and incubated at 37° C., 5% CO2. Compounds were stored as 10 mM DMSO stock. For the assay, MM1S cells (3 million cells/well) were plated in 6-well plates and incubated over night. Cells were treated with respective compounds using a serial dilution: 0.3 μM, 3 μM and 30 μM as well as a vehicle only (DMSO) control for 6 hours. Media with suspension cells was subsequently transferred to 15 mL conical tubes, wells rinsed twice with ice-cold PBS and merged with cell suspension in respective 15 mL conical tube. Cells were spinned down, supernatant aspirated, pellets resuspended in ice-cold PBS and transferred to microtubes. Cells were spinned down, supernatant aspirated and pellets resuspended in 120 μL RIPA lysis buffer supplemented with protease and phosphatase inhibitors. Cell lysates were incubated on ice for 20 minutes followed by centrifugation at >20,000 xg for 5 min. Supernatants were transferred to fresh microtubes and stored at −80° C. Total protein concentration was determined using a BCA assay with a BSA standard curve and concentration of all samples was adjusted to 1 mg/mL. 25 μL 4× LDS sample buffer supplemented with 100 mM DTT was added to 75 μL sample. Samples were centrifuged (8,000 xg, 1 min) and incubated at 95° C. for 5 min followed by another centrifugation step (8,000 xg, 1 min). 20 μL of each sample was loaded on a 4-12% gel alongside a protein molecular weight marker. Gels were run in the presence of MOPS buffer at 80 Volts for 30 min, followed by 120 Volts for 1.5 h and proteins subsequently transferred onto nitrocellulose membranes at 20 Volts for 7 min using an iBlot2 Gel Transfer Device. Membranes were then cut horizontally into two pieces, covering 80-50 kDa and 50-25 kDa. Blocking the membranes was performed by gently shaking in 5% (w/v) skim milk in TSB-T for 1 hr at room temperature. All primary antibodies were used at a 1/1000 in 5% (w/v) BSA dissolved in TBST and incubated with membranes over night at 4° C. Anti-IKZF1 (Ikaros; D6N9Y; 14859S), anti-IKZF3 (Aiolos; D1C1E; 15103S) antibodies were purchased from Cell Signalling Technology, anti-ZFP91 antibody from Bethyl laboratories, anti-GSPT1 from Sigma Aldrich (HPA052488) and anti CK1alpha from AbCam (ab206652). After three washes with 1× TBST for 5 min, HRP-coupled secondary antibodies diluted in 5% (w/v) BSA/TBST (Goat Anti-Rb IgG, dil. 1/10,000; Goat Anti-Mouse IgG, dil. 1/5000) were added for 1 hr at room temperature. After three washes with 1× TBST (5 minutes each), membranes were incubated with ECL reagent for 1 min at room temperature. Chemiluminescence signals were then detected using a LAS-4000 system with default settings and signals quantified using Image Studio Lite software (version 5.2). Membrane parts previously incubated with antibody against CK1alpha were stripped off antibodies by incubating with stripping buffer for 30 minutes followed by three washed with TBST (5 min each), blocking with 5% (w/v) skim milk for 1 hr, and incubation with primary antibody against GAPDH overnight at 4° C. Subsequent washes, incubation with secondary antibody and signal acquisition were performed as described above.
On the technique in general: In western blotting, separated proteins are transferred to a membrane and probed.

The next assay concerns the target GSPT1 (Homo sapiens (Human), UniProt P15170+Q96SW2). Description: selectivity by Western blot in MM1S cells, GSPT1. The note with it: for GSPT1 degradation: MM1S cells, 6 hours, 0.3, 3 and 30 μM. As to the method: as §1
A further assay deals with IKZF3 (Aiolos) (Homo sapiens (Human), UniProt Q9UKT9). Kind of assay: selectivity by Western blot in MM1S cells, IKZF3. Details: key to IKZF3 degradation: A represents a no degradation observed at 30 μM; B represents trace degradation at 30 μM (below 20%); C represents weak degradation at 30 μM (below 50%); D represents degradation at 30 μM (>90%); E represents degradation at 3 μM (>90%); F represents degradation at 0.3 μM (>90%). The note with it: for IKZF3 degradation: MM1S cells, 6 hours, 0.3, 3 and 30 μM. The method, then: as §1

A further assay deals with IKZF1 (Ikaros) (Homo sapiens (Human), UniProt Q13422). Kind of assay: selectivity by Western blot in MM1S cells, IKZF1. More on the design: key to IKZF1 degradation: A represents a no degradation observed at 30 μM; B represents trace degradation at 30 μM (below 20%); C represents weak degradation at 30 μM (below 50%); D represents degradation at 30 μM (>90%); E represents degradation at 3 μM (>90%); F represents degradation at 0.3 μM (>90%). The note with it: for IKZF1 degradation: MM1S cells, 6 hours, 0.3, 3 and 30 μM. The method, then:
as §1

The target of the next assay is IKZF3 (Homo sapiens (Human), UniProt Q9UKT9). Description: IKZF3 degradation in cells treated with compound (FIG. 1A). To be noted: concentrations up to 30 µM.
In another assay the target is SALL (Homo sapiens (Human), UniProt Q9UJQ4). Description: SALL degradation in cells treated with compound (FIG. 1A). To be noted: concentrations up to 30 µM.
Where [1] appears, read: highest concentration tested of 30 μM.

Chain of IKZF3 (Aiolos) (Q9UKT9 whole entry, looked up): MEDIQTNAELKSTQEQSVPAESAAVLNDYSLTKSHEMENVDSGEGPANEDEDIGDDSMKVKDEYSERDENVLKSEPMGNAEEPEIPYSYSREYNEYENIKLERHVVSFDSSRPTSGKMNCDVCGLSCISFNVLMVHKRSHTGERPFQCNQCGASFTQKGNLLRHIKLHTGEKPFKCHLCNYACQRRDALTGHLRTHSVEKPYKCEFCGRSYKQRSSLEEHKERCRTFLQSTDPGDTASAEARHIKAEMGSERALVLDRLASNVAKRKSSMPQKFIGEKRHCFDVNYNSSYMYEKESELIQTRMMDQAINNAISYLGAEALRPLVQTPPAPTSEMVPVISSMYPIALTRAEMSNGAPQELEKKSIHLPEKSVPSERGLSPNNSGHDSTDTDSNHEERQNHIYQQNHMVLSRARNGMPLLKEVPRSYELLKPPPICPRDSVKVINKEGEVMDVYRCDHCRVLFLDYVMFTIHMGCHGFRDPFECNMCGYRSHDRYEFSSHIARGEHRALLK
Chain of CK1alpha (P48729 whole entry, looked up): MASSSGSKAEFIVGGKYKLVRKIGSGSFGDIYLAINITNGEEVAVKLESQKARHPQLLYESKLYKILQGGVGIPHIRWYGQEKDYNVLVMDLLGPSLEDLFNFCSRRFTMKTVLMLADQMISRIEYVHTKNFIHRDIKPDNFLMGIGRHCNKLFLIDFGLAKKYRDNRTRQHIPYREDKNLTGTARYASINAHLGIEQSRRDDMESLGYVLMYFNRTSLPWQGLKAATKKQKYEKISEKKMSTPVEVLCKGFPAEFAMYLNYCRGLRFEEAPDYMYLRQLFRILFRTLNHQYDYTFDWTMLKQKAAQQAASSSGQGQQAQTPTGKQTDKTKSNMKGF
Chain of IKZF1 (Ikaros) (Q13422 whole entry, looked up): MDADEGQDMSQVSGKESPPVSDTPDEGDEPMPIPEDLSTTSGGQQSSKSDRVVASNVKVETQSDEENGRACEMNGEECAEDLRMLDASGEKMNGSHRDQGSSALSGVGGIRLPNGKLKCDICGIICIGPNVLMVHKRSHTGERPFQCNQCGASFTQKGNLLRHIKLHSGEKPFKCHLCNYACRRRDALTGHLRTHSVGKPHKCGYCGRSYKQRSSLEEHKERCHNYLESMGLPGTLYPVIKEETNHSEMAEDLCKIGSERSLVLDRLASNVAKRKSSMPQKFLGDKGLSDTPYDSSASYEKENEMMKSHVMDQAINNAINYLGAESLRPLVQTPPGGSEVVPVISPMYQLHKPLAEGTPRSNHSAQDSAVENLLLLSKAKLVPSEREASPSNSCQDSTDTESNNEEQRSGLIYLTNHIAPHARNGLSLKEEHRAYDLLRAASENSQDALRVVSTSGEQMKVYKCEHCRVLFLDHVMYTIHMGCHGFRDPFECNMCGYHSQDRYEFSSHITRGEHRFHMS
Chain of GSPT1 (P15170 whole entry, looked up): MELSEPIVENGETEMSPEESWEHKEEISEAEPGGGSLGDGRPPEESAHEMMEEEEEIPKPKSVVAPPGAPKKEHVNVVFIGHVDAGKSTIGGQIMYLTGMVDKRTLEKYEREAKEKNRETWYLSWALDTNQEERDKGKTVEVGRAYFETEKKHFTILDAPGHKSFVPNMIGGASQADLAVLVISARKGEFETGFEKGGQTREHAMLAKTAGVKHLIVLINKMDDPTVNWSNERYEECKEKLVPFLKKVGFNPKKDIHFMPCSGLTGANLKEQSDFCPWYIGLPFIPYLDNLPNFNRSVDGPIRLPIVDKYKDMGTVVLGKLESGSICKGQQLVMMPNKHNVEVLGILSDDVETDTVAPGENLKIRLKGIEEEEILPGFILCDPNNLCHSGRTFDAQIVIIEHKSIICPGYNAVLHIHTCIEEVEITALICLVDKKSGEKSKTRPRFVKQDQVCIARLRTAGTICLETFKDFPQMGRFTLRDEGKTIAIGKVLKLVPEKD
Chain of GSPT1 (Q96SW2 whole entry, looked up): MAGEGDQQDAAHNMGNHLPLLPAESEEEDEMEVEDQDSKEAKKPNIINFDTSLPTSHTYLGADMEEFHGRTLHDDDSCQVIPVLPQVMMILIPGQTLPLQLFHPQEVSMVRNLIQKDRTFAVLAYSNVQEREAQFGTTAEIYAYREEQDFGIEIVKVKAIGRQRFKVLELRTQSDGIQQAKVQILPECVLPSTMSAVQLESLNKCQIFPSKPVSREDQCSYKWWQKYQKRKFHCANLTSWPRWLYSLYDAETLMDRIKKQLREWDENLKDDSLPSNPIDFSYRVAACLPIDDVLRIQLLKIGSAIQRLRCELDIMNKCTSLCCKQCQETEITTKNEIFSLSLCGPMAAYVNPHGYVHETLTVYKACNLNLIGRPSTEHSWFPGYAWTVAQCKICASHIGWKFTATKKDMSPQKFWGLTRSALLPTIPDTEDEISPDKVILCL
Chain of GSPT1 (Q16531 whole entry partner, looked up): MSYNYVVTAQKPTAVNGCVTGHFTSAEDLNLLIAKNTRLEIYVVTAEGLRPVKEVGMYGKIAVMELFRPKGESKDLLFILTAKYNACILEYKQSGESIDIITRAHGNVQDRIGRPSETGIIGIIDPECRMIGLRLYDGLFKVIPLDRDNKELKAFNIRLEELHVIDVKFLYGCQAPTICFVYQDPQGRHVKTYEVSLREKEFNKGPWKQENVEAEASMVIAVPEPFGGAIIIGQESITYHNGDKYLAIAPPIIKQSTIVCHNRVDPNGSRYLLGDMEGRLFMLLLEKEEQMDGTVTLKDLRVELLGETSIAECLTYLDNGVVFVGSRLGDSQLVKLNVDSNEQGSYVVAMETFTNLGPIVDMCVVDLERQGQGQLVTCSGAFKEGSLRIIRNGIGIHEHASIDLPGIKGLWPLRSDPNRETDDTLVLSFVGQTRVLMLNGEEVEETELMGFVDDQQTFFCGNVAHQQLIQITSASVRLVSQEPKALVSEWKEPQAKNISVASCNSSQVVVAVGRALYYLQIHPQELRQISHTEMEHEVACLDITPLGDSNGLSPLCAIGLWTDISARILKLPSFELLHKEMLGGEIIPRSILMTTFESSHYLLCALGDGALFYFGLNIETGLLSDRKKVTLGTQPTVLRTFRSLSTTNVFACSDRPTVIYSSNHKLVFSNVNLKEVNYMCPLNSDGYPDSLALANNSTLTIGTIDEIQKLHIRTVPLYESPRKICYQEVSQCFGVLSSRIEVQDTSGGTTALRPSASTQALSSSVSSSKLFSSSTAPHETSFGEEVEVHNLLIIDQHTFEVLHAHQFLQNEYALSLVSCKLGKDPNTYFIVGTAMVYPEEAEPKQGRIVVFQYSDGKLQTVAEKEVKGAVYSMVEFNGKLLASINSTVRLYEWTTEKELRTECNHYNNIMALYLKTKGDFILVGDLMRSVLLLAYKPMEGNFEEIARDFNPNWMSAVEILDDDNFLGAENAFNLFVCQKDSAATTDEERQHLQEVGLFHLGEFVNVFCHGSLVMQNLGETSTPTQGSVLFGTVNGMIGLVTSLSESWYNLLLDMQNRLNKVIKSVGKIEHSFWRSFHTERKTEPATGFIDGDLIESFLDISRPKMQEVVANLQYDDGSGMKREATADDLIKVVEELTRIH
Chain of IKZF3 (Q9UKT9 whole entry, looked up): as the sequence (Q9UKT9 whole entry, looked up) above
Chain of SALL (Q9UJQ4 whole entry, looked up): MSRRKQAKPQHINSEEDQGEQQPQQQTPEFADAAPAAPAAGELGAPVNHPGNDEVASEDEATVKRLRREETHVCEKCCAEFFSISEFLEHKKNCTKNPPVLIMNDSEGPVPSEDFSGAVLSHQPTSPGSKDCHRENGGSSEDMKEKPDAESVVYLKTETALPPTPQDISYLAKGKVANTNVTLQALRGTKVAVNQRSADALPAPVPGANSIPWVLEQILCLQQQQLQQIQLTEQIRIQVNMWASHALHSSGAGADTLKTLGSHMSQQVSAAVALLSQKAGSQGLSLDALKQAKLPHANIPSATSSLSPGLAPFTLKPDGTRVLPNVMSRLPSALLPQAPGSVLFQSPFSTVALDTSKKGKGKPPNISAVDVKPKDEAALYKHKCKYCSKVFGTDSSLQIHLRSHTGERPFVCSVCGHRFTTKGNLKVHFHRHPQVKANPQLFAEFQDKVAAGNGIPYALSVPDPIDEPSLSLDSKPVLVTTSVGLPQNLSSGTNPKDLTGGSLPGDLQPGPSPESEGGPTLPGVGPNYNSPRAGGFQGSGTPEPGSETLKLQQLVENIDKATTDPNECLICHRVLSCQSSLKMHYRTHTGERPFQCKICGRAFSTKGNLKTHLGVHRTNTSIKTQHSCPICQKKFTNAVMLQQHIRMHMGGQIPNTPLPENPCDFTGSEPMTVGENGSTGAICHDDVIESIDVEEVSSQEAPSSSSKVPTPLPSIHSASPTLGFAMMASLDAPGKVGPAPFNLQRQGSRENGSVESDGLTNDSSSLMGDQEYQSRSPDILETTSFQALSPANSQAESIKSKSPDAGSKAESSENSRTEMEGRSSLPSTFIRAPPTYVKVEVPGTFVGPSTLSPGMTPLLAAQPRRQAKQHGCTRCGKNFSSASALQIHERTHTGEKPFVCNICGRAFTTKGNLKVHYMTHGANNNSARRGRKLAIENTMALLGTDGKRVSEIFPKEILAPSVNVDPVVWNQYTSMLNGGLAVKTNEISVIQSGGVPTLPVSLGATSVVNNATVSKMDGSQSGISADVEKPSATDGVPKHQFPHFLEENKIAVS

For the compound `Cc1ncc(NC(=O)OCc2ccc3c(c2)C(=O)N(C2CCC(=O)NC2=O)C3)cc1Cl` (centres unmarked) [Compound 6], the CK1alpha degradation entry on CK1alpha is “A”. Moreover, the GSPT1 degradation entry at GSPT1 was “F (F represents degradation at 0.3 μM (>90%))”. In addition, the IKZF3 degradation entry on IKZF3 (Aiolos) is given as “B (B represents trace degradation at 30 μM (below 20%))”. On IKZF1 (Ikaros), the IKZF1 degradation entry is reported as “A”.
Regarding `Cc1ccc(NC(=O)OCc2ccc3c(c2)C(=O)N(C2CCC(=O)NC2=O)C3)cc1Cl` (centres unmarked) [Compound 10], at CK1alpha, the CK1alpha degradation entry is “B (B represents trace degradation at 30 μM (below 20%))”. For the same compound, the “CK1alpha degradation (FIG. 1A)” value on CK1alpha (setting [1]) was “none of the known the substrates IKZF1, IKZF3, SALL4, CK1alpha was degraded”. Further, at GSPT1, the GSPT1 degradation entry was “D (D represents degradation at 30 μM (>90%))”. Moreover, at GSPT1 (cells treated at 0.3 μM), the “GSPT1 degradation (FIG. 1A)” value is “complete GSPT1 degradation”. The IKZF3 degradation entry at IKZF3 (Aiolos) is “B (B represents trace degradation at 30 μM (below 20%))”. Also, at IKZF3 (Aiolos) (setting [1]), the “IKZF3 degradation (FIG. 1A)” value is given as “none of the known the substrates IKZF1, IKZF3, SALL4, CK1alpha was degraded”. For the same compound, at IKZF1 (Ikaros), the IKZF1 degradation result is given as “A”. Besides, at IKZF1 (Ikaros) (setting [1]), the “IKZF1 degradation (FIG. 1A)” value is “none of the known the substrates IKZF1, IKZF3, SALL4, CK1alpha was degraded”. Besides, the “degradation of IKZF3” value on IKZF3 is recorded as “no induction of degradation”. Further, the “degradation of SALL” value at SALL is listed as “no induction of degradation”.
In the case of `O=C1CCC(N2Cc3ccc(COC(=O)Nc4ccc(N5CCCCC5)nc4)cc3C2=O)C(=O)N1` (centres unmarked) [Compound 15], the CK1alpha degradation entry at CK1alpha is on record as “C (C represents weak degradation at 30 μM (below 50%))”. In addition, on GSPT1, the GSPT1 degradation result is “F (F represents degradation at 0.3 μM (>90%))”. In addition, the IKZF3 degradation result at IKZF3 (Aiolos) is reported as “B (B represents trace degradation at 30 μM (below 20%))”. On IKZF1 (Ikaros), the IKZF1 degradation result is reported as “A”.
Consider `O=C1CCC(N2Cc3ccc(COC(=O)Nc4ccc(-c5ccccc5)nc4)cc3C2=O)C(=O)N1` (centres unmarked) [Compound 42], for which, at CK1alpha, the CK1alpha degradation entry is on record as “B (B represents trace degradation at 30 μM (below 20%))”. Also, at GSPT1, the GSPT1 degradation result is reported as “F (F represents degradation at 0.3 μM (>90%))”. At IKZF3 (Aiolos), the IKZF3 degradation result is on record as “A”. The IKZF1 degradation entry on IKZF1 (Ikaros) is “A”.
For `CC(C)(C)c1ccc(NC(=O)OCc2ccc3c(c2)C(=O)N(C2CCC(=O)NC2=O)C3)cn1` (centres unmarked) [Compound 43], at CK1alpha, the CK1alpha degradation result was “C (C represents weak degradation at 30 μM (below 50%))”. Moreover, the GSPT1 degradation entry on GSPT1 is recorded as “F (F represents degradation at 0.3 μM (>90%))”. Also, the IKZF3 degradation entry on IKZF3 (Aiolos) is reported as “B (B represents trace degradation at 30 μM (below 20%))”. The IKZF1 degradation result on IKZF1 (Ikaros) is on record as “A”.
